The record followed here is patent publication US6525056B2, “Heterocyclyl-substituted ring-fused pyridines and pyrimidines as corticotropin releasing hormone (CRH) antagonists, useful for treating cns and stress-related disorders” (Bristol-Myers Squibb Company, priority 1997, dated 2003).

By melting point is commonly meant the temperature, or range, at which the solid turns liquid.

Structures are written as SMILES.

Consider `Cc1nc(N2CCc3cc(Cl)cc(Cl)c32)c2c(C)nn(Cc3ccccc3)c2n1` [Example 414], for which the melting point lay within 145 to 146 °C.

On to `COCC[C@@H](COC)n1nnc2c(N3CCc4cc(Br)cc(Br)c43)nc(C)cc21` [Example 1, (S)-4-(5,7-Dibromo-2,3-dihydro-1H-indol-1-yl)-1-[1-(methoxymethyl)-3-methoxypropyl]-6-methyl-1H-1,2,3-triazolo[4,5-c]pyridine], for which the melting point fell in the range of 136 to 138 °C.
